Patent US10899962B2, “Camera module, lubricant composition, and electronic device” (Samsung Electro-Mechanics Co., Ltd., priority 2018, dated 2021)

Experiment: solubility of the fluorinated fluorescent material at varied concentrations (FIG. 8, FIG. 11)
Format: physicochemical
Conditions: concentrations shown 0.25 wt %, 0.5 wt %, and 1 wt %
Text: More specifically, when using a compound represented by Chemical Formula 1, for example, a compound represented by Chemical Formula 1-1 for the fluorinated fluorescent material, the fluorinated fluorescent material is included, for example, in an amount from 0.1 wt % to less than 0.5 wt %, or even, for example, in an amount from 0.1 wt % to 0.3 wt %. This can be confirmed from FIG. 8 to FIG. 10. […] Referring to the drawings, it can be seen that solubility issues occur in concentrations of 0.5 wt % or higher. FIG. 9 and FIG. 10 show the fluorescence of a lubricant composition containing 0.25 wt % of a compound represented by Chemical Formula 1-1. […] From the drawings, it can be seen that the presence of the lubricant can be easily detected after application of the lubricant composition.
Furthermore, when using a compound represented by Chemical Formula 2, for example, a compound represented by Chemical Formula 2-1 for the fluorinated fluorescent material, the fluorinated fluorescent material is included, for example, in an amount from 0.01 wt % to less than 1.0 wt %, or even included, for example, in an amount from 0.03 wt % to 0.15 wt %. This can be confirmed from FIG. 11. […] Referring to the drawing, it can be seen that solubility issues occur in concentrations of 1.0 wt % or higher.

CCN(CC)c1ccc2c(C)cc(=O)oc2c1 [Chemical Formula 1-1]
concentrations in which solubility issues occur: ≥ 0.5 wt %
